Values quoted from earlier work, collected in publication PMC9008720 (Biomedical chromatography : BMC, 2022).

System: GBM tumor
Settings: ref Zalcman et al., 2018

## CNC(=O)c1ccc(N2C(=S)N(c3ccc(C#N)c(C(F)(F)F)c3)C(=O)C2(C)C)cc1F [enzalutamide]
  GBM tumor growth in nude mice: reduced the GBM tumor growth
